Results published in patent US20250280827A1, “An antifungal composition comprising natamycin and at least one insecticide” (priority 2021, published 2025).
Read-outs that look alike come from different tables or passages of the source.

Key:
Fusarium culmorum = test: Antifungal effect against Fusarium culmorum on PDA petri dishes (fungal growth area, Colby synergy); assay type: cell-based; settings: natamycin-insecticide 0.5-0 ppm
Text: (§1) The Colby equation (Colby, 1967. Weeds 15:20-22) calculates the expected antifungal activity (E in %) of a combination comprising more than one active ingredients:
(§2) wherein X and Y are the observed antifungal activities (in %) of the individual active ingredients x and y, respectively. If the observed antifungal activity (O in %) of the combination exceeds the expected antifungal activity (E in %) of the combination and the synergy factor O/E is thus >1.0, the combined application of the active ingredients leads to a synergistic antifungal effect.
(§3) Agar medium was prepared by mixing in a 100 ml Duran bottle 3.9 g of potato dextrose agar (PDA) from Carl-Roth (Carl-Roth GmbH+Co. KG, Karlsruhe, Germany) with 100 ml deionized water and autoclaving the Duran bottle at 120° C. for 15 minutes. After autoclaving, the solution was cooled by putting it in a 48° C. oven for about two hours. Afterward the semi-liquid PDA solution was carefully mixed with natamycin and/or insecticide dosages as specified in Table 5 showing the interaction results on petri dishes. The medium in the Duran bottle was divided over 5 petri dishes (90×15 mm), 20 ml per petri dish by using 25 ml serological pipets (ROTILABO®; Carl-Roth). Each natamycin and/or insecticide treatment was performed in fivefold.
(§4) Fungal spore suspensions were prepared by drenching a fully grown petri dish with sterile water. The fungus was scraped off and filtered through a Miracloth (pore size: 22-25 μm) (Merck KGaA, Darmstadt, Germany; catalogue number: 475855). The number of spores were counted with a hemocytometer and fungal suspension was adjusted to 10^6 spores per ml. Afterward, 5 μl of prepared spore suspension was pipetted on the center of the agar plate. The plates were incubated at 25° C. Measurement of the fungal growth was done using callipers at different time points. Assessment of the infection area was 6 days after inoculation.
(§5) The insecticide levels and the period after which the assessments were made are presented as specified for the different insecticides are presented in Table 5 below. Synergistic calculation was done using the Colby equation. Experiment was performed in 5-fold.
The experiments were performed as described in Example 3. Assessment of the infection area was 6 days after inoculation. Experiment was performed in 5-fold.
The experiments were performed as described in Example 3. The product KARATE ZEON® of company Syngenta containing the active ingredient lambda-cyhalothrin belonging to IRAC Group 3 was tested. Assessment of the infection area was 3 days after inoculation. Experiment was performed in 5-fold.

Fusarium graminerum = assay type: cell-based; settings: 6 days after inoculation
Text: as §1, §2, §3, §4, §5
The experiments were performed as described in Example 3. The product KARATE ZEON® of company Syngenta containing the active ingredient lambda-cyhalothrin belonging to IRAC Group 3 was tested. Assessment of the infection area was 6 days after inoculation. Experiment was performed in 5-fold.

[1] = 3 days after inoculation, Table 11
[2] = 6 days after inoculation, Table 6
[3] = natamycin-insecticide 0.5-0 ppm, Table 5
[4] = natamycin-insecticide 1-0 ppm, Table 10

What does the source list for `C[C@@H]1C/C=C/C=C/C=C/C=C/[C@H](O[C@@H]2O[C@H](C)[C@@H](O)[C@H](N)[C@@H]2O)C[C@@H]2O[C@](O)(C[C@@H](O)C[C@H]3O[C@@H]3/C=C/C(=O)O1)C[C@H](O)[C@H]2C(=O)O` [natamycin]?
Avg infected area (Fusarium culmorum; [1]): 297.7 mm2; Observed antifungal activity (Fusarium culmorum; [1]): 17.9%; Avg infected area (Fusarium culmorum; [2]): 810.2 mm2; Observed antifungal activity (Fusarium culmorum; [2]): 18.8%; Avg infected area (Fusarium graminerum; [3]): 1054.4 mm2; Observed antifungal activity (Fusarium graminerum; [3]): 7.2%; Avg infected area (Fusarium graminerum; [4]): 1107.7 mm2; Observed antifungal activity (Fusarium graminerum; [4]): 69.4%
